These results are taken from paper PMC11709109, “Identification of AS1842856 as a novel small‐molecule GSK3α/β inhibitor against Tauopathy by accelerating GSK3α/β exocytosis” (Aging Cell, 2024).

One experiment has as its target T1, GSK3α (Homo sapiens, UniProt P49840).
T1 construct: gene GSK3A; recombinant, His tag (CLOUD-CLONE RPA360Hu01)
The experiment is described as follows: bio-layer interferometry (Octet K2, Ni-NTA); supported by CETSA in N2a lysate. It is filed as binding.

Another experiment has as its target T2, GSK3β (Homo sapiens, UniProt P49841).
T2 construct: gene GSK3B; recombinant, His tag (Sino Biological 10044-H07B)
The description is as above. It is filed as binding.

T1 sequence (P49840 2-483): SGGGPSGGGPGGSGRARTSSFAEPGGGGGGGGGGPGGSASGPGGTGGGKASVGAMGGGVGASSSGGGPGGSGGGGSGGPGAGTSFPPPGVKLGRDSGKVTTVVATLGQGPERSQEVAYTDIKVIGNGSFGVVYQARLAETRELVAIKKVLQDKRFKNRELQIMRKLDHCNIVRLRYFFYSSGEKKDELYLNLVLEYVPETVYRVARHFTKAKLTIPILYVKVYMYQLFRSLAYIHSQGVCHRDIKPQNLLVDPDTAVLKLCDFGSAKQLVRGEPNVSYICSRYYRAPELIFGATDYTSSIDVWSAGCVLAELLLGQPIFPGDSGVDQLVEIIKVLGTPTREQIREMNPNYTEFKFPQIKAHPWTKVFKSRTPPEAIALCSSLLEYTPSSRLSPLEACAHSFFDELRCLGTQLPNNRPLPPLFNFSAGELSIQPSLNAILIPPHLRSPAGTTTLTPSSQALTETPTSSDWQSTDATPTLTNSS

As for `CCn1cc(C(=O)O)c(=O)c2c(N)c(F)c(NC3CCCCC3)cc21` [AS, AS1842856], the Kd at GSK3α came to 15.8 µM; at GSK3β, 40.9 µM.
